Where a name gives a salt, the structure may show the parent alone. Read-outs that look alike come from different tables or passages of the source.

The subject of the assay is P. falciparum infected erythrocytes. As to the kind of experiment: P. falciparum growth inhibition assay ([3H]hypoxanthine incorporation). In kind it is cell-based, Plasmodium falciparum. The procedure: P. falciparum Growth Inhibition Assay.
The sensitivity of P. falciparum infected erythrocytes to the compound was determined in duplicate using the [3H]hypoxanthine incorporation method with an inoculum of 0.5% parasitemia (ring stage) and 2% hematocrit. The parasites were grown in RPMI 1640, 25 mM HEPES and supplemented with 5% Albumax. Plates are incubated at 37° C., 5% CO2, 5% O2, 90% N2. After 24 h of incubation, [3H]hypoxanthine is added and plates are incubated for another 24 h. After that period, plates are harvested on a glass fiber filter using a TOMTEC Cell harvester 96. Filters are dried and melt on scintillator sheets and the bound radioactivity is quantified by use of a Wallac Microbeta Trilux (Model 1450 LS—Perkin Elmer). IC50s are determined using Grafit 7 program (Grafit program; Erithacus Software, Horley, Surrey, United Kingdom).
Each example compound was tested generally in accordance with the above-mentioned assay and the PfIC50 value for each compound is reported in the Table below and according to the following: […]

The mark [1] stands for this setting: Plasmodium falciparum, Erythrocyte, [3H]hypoxanthine incorporation, 0.5% parasitemia, 2% hematocrit, 48 h, read-out: PfIC50 Media.
The mark [2] stands for this setting: Plasmodium falciparum, Erythrocyte, read-out: average PfIC50.
[3] abbreviates: Plasmodium falciparum, Erythrocyte, hydrochloride salt, read-out: average PfIC50 of the hydrochloride salt.
The mark [4] stands for this setting: [3H]hypoxanthine incorporation, 0.5% parasitemia, 2% hematocrit, 48 h, read-out: PfIC50 Media.

On to `O=C(c1ccc(OC[C@H](O)Cc2nnn[nH]2)cc1)N1CC[C@H](c2ccc(F)cc2)C1` [Example 25, ((R)-3-(4-fluorophenyl)pyrrolidin-1-yl)(4-((R)-2-hydroxy-3-(1H-tetrazol-5-yl)propoxy)phenyl)methanone], for which the IC50 under setting [1] lay within 1 to 5 µM. Regarding `O=C(c1ccc(OC[C@H](O)Cn2nccn2)cc1)N1CC[C@H](c2ccc(F)cc2)C1` [Example 16, ((R)-3-(4-fluorophenyl)pyrrolidin-1-yl)(4-((R)-2-hydroxy-3-(2H-1,2,3-triazol-2-yl)propoxy)phenyl)methanone], the IC50 under setting [1] is under 0.1 µM and the IC50 under setting [2] was at most 0.05 µM. Turning to `Cn1cc(CC(O)COc2ccc(C(=O)N3CC[C@H](c4ccc(F)cc4)C3)cc2)cn1` (mixture of isomers) [Example 37, ((R)-3-(4-Fluorophenyl)pyrrolidin-1-yl)(4-(2-hydroxy-3-(1-methyl-1H-pyrazol-4-yl)propoxy)phenyl)methanone], the IC50 under setting [1] lay within 1 to 5 µM. With `CC(COc1ccc(C(=O)N2CC[C@H](c3ccc(F)cc3)C2)cc1)Cn1cnnn1` (single isomer, unassigned) [Example 1a], under setting [1], the IC50 was in the range of 0.1 to 0.5 µM. Take `N[C@@H](COc1ccc(C(=O)N2CC[C@H](c3ccc(F)cc3)C2)cc1)Cn1nccn1` [Example 53, (4-((R)-2-amino-3-(2H-1,2,3-triazol-2-yl)propoxy)phenyl)((R)-3-(4-fluorophenyl)pyrrolidin-1-yl)methanone, Hydrochloride]: the IC50 under setting [1] is under 0.1 µM.

For `O=C(c1ccc(OCC(O)Cc2cscn2)cc1)N1CC[C@H](c2ccc(F)cc2)C1` (single isomer, unassigned) [Example 35a], the IC50 is under 0.1 µM under setting [1] and at most 0.05 µM under setting [2]. For `Cl.N[C@H](COc1ccc(C(=O)N2CC[C@@H](c3ccc(F)cc3)C2)cc1)Cn1ncnn1` [Example 51, (4-((S)-2-amino-3-(2H-tetrazol-2-yl)propoxy)phenyl)((S)-3-(4-fluorophenyl)pyrrolidin-1-yl)methanone, Hydrochloride], the IC50 under setting [3] was over 5 µM. Take `O=C(c1ccc(OC[C@H](O)Cn2ncnn2)cc1)N1CC[C@H](c2ccc(Cl)cc2)C1` [Example 29, ((R)-3-(4-chlorophenyl)pyrrolidin-1-yl)(4-((R)-2-hydroxy-3-(2H-tetrazol-2-yl)propoxy)phenyl)methanone]: the IC50 was under 0.1 µM under setting [1] and at most 0.05 µM under setting [2]. As to `O=C(c1ccc(OC[C@H](O)Cn2cnnn2)cc1F)N1CC[C@H](c2ccc(F)cc2)C1` [Example 26, (2-fluoro-4-((R)-2-hydroxy-3-(1H-tetrazol-1-yl)propoxy)phenyl)((R)-3-(4-fluorophenyl)pyrrolidin-1-yl)methanone], the IC50 under setting [1] lay within 0.1 to 0.5 µM.

For `O=C(c1ccc(OC[C@H](O)Cn2cncn2)cc1)N1CC[C@H](c2ccc(Cl)cc2)C1` [Example 30, ((R)-3-(4-chlorophenyl)pyrrolidin-1-yl) (4-((R)-2-hydroxy-3-(1H-1,2,4-triazol-1-yl)propoxy)phenyl)methanone], the IC50 under setting [1] is under 0.1 µM. With `N[C@@H](COc1ccc(C(=O)N2CC[C@H](c3ccc(F)cc3)C2)cc1)Cn1cccn1` [Example 55, (4-((R)-2-amino-3-(1H-pyrazol-1-yl)propoxy)phenyl)((R)-3-(4-fluorophenyl)pyrrolidin-1-yl)methanone, Hydrochloride], under setting [1], the IC50 was 0.1 to 0.5 µM. Take `N[C@@H](COc1ccc(C(=O)N2CC[C@H](c3ccc(Cl)cc3)C2)cc1)Cn1cnnn1` [Example 47, (4-((R)-2-amino-3-(1H-tetrazol-1-yl)propoxy)phenyl)((R)-3-(4-chlorophenyl)pyrrolidin-1-yl)methanone]: the IC50 reads like this: under setting [1], under 0.1 µM; (Plasmodium falciparum, Erythrocyte, hydrochloride salt of the example, same assay, read-out: PfIC50 Media (uM), (HCl)) under 0.1 µM. As for `NC(=O)c1nnn(C[C@@H](O)COc2ccc(C(=O)N3CC[C@H](c4ccc(F)cc4)C3)cc2)n1` [Example 38, 2-((R)-3-(4-((R)-3-(4-Fluorophenyl)pyrrolidine-1-carbonyl)phenoxy)-2-hydroxypropyl)-2H-tetrazole-5-carboxamide], the IC50 under setting [1] fell in the range of 0.1 to 0.5 µM. As for `O=C(c1ccc(OC[C@H](O)Cn2ncnn2)cc1)N1CCC(c2ccc(F)cc2F)C1` (single isomer, unassigned) [Example 42a], the IC50 by setting is: under setting [1], under 0.1 µM; under setting [2], at most 0.05 µM. `O=C(c1ccc(OC[C@H](O)Cn2cccn2)cc1)N1CC[C@H](c2ccc(F)cc2)C1` [Example 19, ((R)-3-(4-fluorophenyl)pyrrolidin-1-yl)(4-((R)-2-hydroxy-3-(1H-pyrazol-1-yl)propoxy)phenyl)methanone]: the IC50 was under 0.1 µM under setting [1] and at most 0.05 µM under setting [2]. `O=C(c1ccc(OC[C@H](O)Cn2cnnn2)cc1)N1CC[C@H](c2ccc(Cl)cc2)C1` [Example 28, ((R)-3-(4-chlorophenyl)pyrrolidin-1-yl)(4-((R)-2-hydroxy-3-(1H-tetrazol-1-yl)propoxy)phenyl)methanone]: under setting [1], the IC50 was under 0.1 µM. For `O=C(c1ccc(OC[C@H](F)Cn2ncnn2)cc1)N1CC[C@H](c2ccc(F)cc2)C1` [Example 11], the IC50 under setting [1] was under 0.1 µM and the IC50 under setting [2] was at most 0.05 µM.

As to `COc1ccc(C2CCN(C(=O)c3ccc(OC[C@H](O)Cn4ncnn4)cc3)C2)cc1` (single isomer, unassigned) [Example 44a], the IC50 under setting [4] is under 0.1 µM. As for `O=C(c1ccc(OC[C@H](O)Cn2cnnn2)cc1)N1CC[C@H](c2ccc(F)cc2)C1` [Example 5, ((R)-3-(4-Fluorophenyl)pyrrolidin-1-yl)(4-((R)-2-hydroxy-3-(1H-tetrazol-1-yl)propoxy)phenyl)methanone], the IC50 is under 0.1 µM under setting [1] and at most 0.05 µM under setting [2].

With `O=C(c1ccc(OC[C@H](O)Cn2ncnn2)cc1)N1CCC(c2cccc(F)c2)C1` (single isomer, unassigned) [Example 41a], the IC50 under setting [2] is at most 0.05 µM and the IC50 under setting [4] was under 0.1 µM. Consider `N[C@@H](COc1ccc(C(=O)N2CC[C@H](c3ccc(F)cc3)C2)cc1)Cn1cnnn1` [Example 46, (4-((R)-2-amino-3-(1H-tetrazol-1-yl)propoxy)phenyl)((R)-3-(4-fluorophenyl)pyrrolidin-1-yl)methanone], for which, under setting [1], the IC50 is under 0.1 µM. In the case of `O=C(c1ccc(OC[C@@H](O)Cn2ncnn2)cc1)N1CC[C@@H](c2ccc(F)cc2)C1` [Example 14, ((S)-3-(4-Fluorophenyl)pyrrolidin-1-yl)(4-((S)-2-hydroxy-3-(2H-tetrazol-2-yl)propoxy)phenyl)methanone], the IC50 by setting is: under setting [1], 1 to 5 µM; under setting [2], 1.2 µM. For `N#Cc1ccc(C2CCN(C(=O)c3ccc(OC[C@H](O)Cn4ncnn4)cc3)C2)cc1` (single isomer, unassigned) [Example 43b], the IC50 under setting [4] lay in the range of 1 to 5 µM.

Consider `O=C(c1ccc(OC[C@@H](F)Cn2ncnn2)cc1)N1CC[C@H](c2ccc(F)cc2)C1` [Example 12], for which the IC50 reads like this: under setting [1], under 0.1 µM; under setting [2], at most 0.05 µM.

For `N[C@H](COc1ccc(C(=O)N2CC[C@H](c3ccc(F)cc3)C2)cc1)Cn1ncnn1` [Example 49, (4-((S)-2-amino-3-(2H-tetrazol-2-yl)propoxy)phenyl)((R)-3-(4-fluorophenyl)pyrrolidin-1-yl)methanone, Hydrochloride], the IC50 is 0.1 to 0.5 µM under setting [1] and 0.31 µM under setting [3]. `O=C(c1ccc(OC[C@@H](O)Cn2ncnn2)cc1)N1CC[C@H](c2ccc(F)cc2)C1` [Example 8, ((R)-3-(4-fluorophenyl)pyrrolidin-1-yl)(4-((S)-2-hydroxy-3-(2H-tetrazol-2-yl)propoxy)phenyl) methanone]: the IC50 is under 0.1 µM under setting [1] and 0.052 µM under setting [2].

Turning to `O=C(c1ccc(OC[C@H](O)Cn2ncnn2)cc1)N1CCC(c2ccc(F)cc2F)C1` (single isomer, unassigned) [Example 42b], the IC50 under setting [4] is 0.1 to 0.5 µM. Consider `CC(O)(COc1ccc(C(=O)N2CC[C@H](c3ccc(F)cc3)C2)cc1)Cn1ncnn1` (single isomer, unassigned) [Example 9a], for which the IC50 under setting [1] was 0.1 to 0.5 µM. Consider `O=C(c1ccc(OC[C@H](O)Cn2ncnn2)cc1)N1CCC(c2ccccc2F)C1` (single isomer, unassigned) [Example 40b], for which, under setting [4], the IC50 is 0.1 to 0.5 µM.

For the molecule `O=C(c1ccc(OC[C@H](O)Cn2cnnc2)cc1)N1CC[C@H](c2ccc(F)cc2)C1` [Example 18, ((R)-3-(4-fluorophenyl)pyrrolidin-1-yl)(4-((R)-2-hydroxy-3-(4H-1,2,4-triazol-4-yl)propoxy)phenyl)methanone], under setting [1], the IC50 lay within 1 to 5 µM. On to `O=C(c1ccc(OCC(F)Cn2cnnn2)cc1)N1CC[C@H](c2ccc(F)cc2)C1` (single isomer, unassigned) [Example 3a], for which the IC50 under setting [1] was in the range of 0.1 to 0.5 µM. Consider `N[C@@H](COc1ccc(C(=O)N2CC[C@@H](c3ccc(F)cc3)C2)cc1)Cn1ncnn1` [Example 50, (4-((R)-2-amino-3-(2H-tetrazol-2-yl)propoxy)phenyl)((S)-3-(4-fluorophenyl)pyrrolidin-1-yl)methanone, Hydrochloride], for which the IC50 by setting is: under setting [1], 0.1 to 0.5 µM; under setting [3], 0.219 µM. As to `O=C(c1ccc(OC[C@H](O)Cn2nccn2)cc1)N1CC[C@H](c2ccc(Cl)cc2)C1` [Example 31, ((R)-3-(4-chlorophenyl)pyrrolidin-1-yl)(4-((R)-2-hydroxy-3-(2H-1,2,3-triazol-2-yl)propoxy)phenyl)methanone], the IC50 by setting is: under setting [1], under 0.1 µM; under setting [2], at most 0.05 µM.

Values taken from patent US11453657B2 (GlaxoSmithKline Intellectual Property Development Limited, priority 2018, dated 2022).
